Results on 2 compounds are retold here after patent US20030199671A1, “Binding molecules for Fc-region polypeptides” (priority 2001, published 2003).

Data set [1] addresses T1, human plasma IgG1 (Homo sapiens, UniProt P01857).
T1 construct: the individual human plasma IgG isoforms: IgG1, IgG2, IgG3, or IgG4; purchased Calbiochem; host or cells: human plasma
The data set can be described thus: Fluorescence anisotropy binding, fluorescein-labeled peptide. How it is done: (§1) All measurements were performed in 384 well microplates with 20 nM fluorescein-labeled peptide and various concentrations of the IgG isoform in a volume of between 10 and 20 μl using a Tecan Polarion fluorescence polarization plate reader. All binding buffers included 0.01% (v/v) Tween 20 to prevent peptide adsorption to the microplate. The binding mixture was equilibrated for 10 minutes in the microplate at 30° C. prior to performing the measurement.
(§2) Peptides were synthesized, fluorescein-labeled and HPLC purified as described above. Binding studies were performed using either a mixture of human plasma IgG isoforms (the Fc protein) or the individual human plasma IgG isoforms: IgG1, IgG2, IgG3, or IgG4.
(§3) Measurements were performed in 384-well microplates with 2 nM fluorescein-labeled peptide and a varied concentration of the IgG isoform target in a volume of 10 μl using a Tecan Polarion fluorescence polarization plate reader. The Fc binding buffer was 50 mM Tris-HCl, 200 mM NaCl, pH 8.0, 0.01% Tween 20. The IgG binding buffer was PBS with 0.01% Tween 20. The binding mixtures were equilibrated for 10 minutes in the microplate at 30° C. prior to performing the measurements.

Data set [2] concerns the target T2, human plasma IgG2 (Homo sapiens, UniProt P01859).
T2 construct: the individual human plasma IgG isoforms: IgG1, IgG2, IgG3, or IgG4; purchased Calbiochem; host or cells: human plasma
The data set is described as above. How it is done: as §1, §2, §3

The target in data set [3] is T3, human plasma IgG4 (Homo sapiens, UniProt P01861).
T3 construct: the individual human plasma IgG isoforms: IgG1, IgG2, IgG3, or IgG4; purchased Calbiochem; host or cells: human plasma
The description is as above. How it is done:
(§4) Peptides were synthesized by BACHEM Bioscience, Inc., (King of Prussia, Pa.), fluorescein labeled and purified by HPLC. Binding studies were performed using either a mixture of human plasma IgG isoforms (the Fc target) or the individual human plasma IgG isoforms: IgG1, IgG2, IgG3, or IgG4. All Fc target proteins were obtained from Calbiochem.
as §1, §2, §3

In data set [4] the target is T4, human plasma IgG3 (Homo sapiens, UniProt P01860).
T4 construct: the individual human plasma IgG isoforms: IgG1, IgG2, IgG3, or IgG4; purchased Calbiochem; host or cells: human plasma
The data set is described as above. The method, then: as §4, §1, §2, §3

The target of data set [5] is Fc (mixture of human plasma IgG isoforms). Described as above. Particulars: pH 8.0, 0.05 M Tris-HCl, 0.2 M NaCl. The method, then: as §4, §1, §2, §3
The target of data set [6] is T5, IgG4 (Homo sapiens, UniProt P01861). It is filed as binding. Conditions: Table 9; immobilized peptide, 5.0 mg/ml resin load. Set-up: all human subtypes derived from myeloma patients; purchased Calbiochem 400126; host or cells: myeloma patients. Summed up: (§5)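 Read-out is A280 of unbound IgG (1.4 mg/ml extinction coefficient), with percent bound derived against non-filtered or negative controls. Targets were incubated with immobilized peptides in PBST or TBST for 1-1.5 h at room temperature. Hydrolyzed Sepharose and immobilized Protein A serve as negative and positive controls.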

For data set [7], the target named is T6, IgG3 (Homo sapiens, UniProt P01860). Briefly: Competition between synthetic peptides and Protein A for Fc binding. Set-up: the individual human plasma IgG isoforms: IgG1, IgG2, IgG3, or IgG4; purchased Calbiochem; host or cells: human plasma; key: NB: no detected binding.; ?: partial decrease in anisotropy with added competitor. Particulars: 5 mg/ml protein A. The method, then: (§6) Cross-competition studies between peptides were performed using 20 nM fluorescein-labeled peptide and 1-2 μM IgG1, IgG2, IgG3, or IgG4 in the presence and absence of a maximum of 100 μM unlabeled peptide or 5 mg/ml protein A.
(§7) This is consistent with the fact that Protein A is known not to bind human IgG3.

The target in data set [8] is T5, IgG4. Described as above. Set-up: the individual human plasma IgG isoforms: IgG1, IgG2, IgG3, or IgG4; purchased Calbiochem; host or cells: human plasma; key: NB: no detected binding.; ?: partial decrease in anisotropy with added competitor. Conditions: 5 mg/ml protein A. The method, then:
as §6, §7

The target in data set [9] is T6, IgG3. It is filed as binding. Particulars: Table 9; immobilized peptide, 5.0 mg/ml resin load. Set-up: all human subtypes derived from myeloma patients; purchased Calbiochem 400124; host or cells: myeloma patients. In a few lines: (§8)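 Percent bound = control mass minus unbound mass, with unbound IgG read at A280 after 1–1.5 h room-temperature incubation with the peptide resin in PBST pH 7.2 or TBST pH 7.5. Bound IgG was eluted 30–60 min with 0.1 M citrate pH 4.0 and/or bicarbonate pH 8.5. Recovery is given as percent of total load.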

Data set [10] concerns goat IgG. The class given is binding. Conditions: Table 11; unfractionated IgG. In a few lines:
(§9)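 Steps: dilute IgG in PBST or TBST; incubate with immobilized peptide 1-1.5 h, RT; collect unbound by centrifugation; measure A280; wash three times; elute with 0.1 M sodium bicarbonate pH 8.5 and/or 0.1 M sodium citrate pH 4.0 for 30-60 min and quantitate.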

Data set [11] deals with mouse IgG. The class given is binding. Conditions: Table 11; unfractionated IgG. Summed up: as §9
For data set [12], the system named is bovine IgG. It is filed as binding. Conditions: Table 11; unfractionated IgG. Summed up:
as §9

Data set [13] addresses T7, human IgG1 (Homo sapiens, UniProt P01857).
T7 construct: all human subtypes derived from myeloma patients; purchased Calbiochem 400120; host or cells: myeloma patients
It is filed as binding. Conditions: Table 9; immobilized peptide, 5.0 mg/ml resin load. Summed up: as §8

Data set [14] addresses T8, human IgG2 (Homo sapiens, UniProt P01859).
T8 construct: all human subtypes derived from myeloma patients; purchased Calbiochem 400122; host or cells: myeloma patients
The class given is binding. Conditions: Table 9; immobilized peptide, 5.0 mg/ml resin load. Summed up:
as §5

The subject of data set [15] is human IgG. The class given is binding. Particulars: Table 11; unfractionated IgG. Summed up:
as §9

The conditions of data set [16]: cited from earlier work.
Setting [17] is: pH 9.3, 0.01 M sodium bicarbonate.

`CC(=O)N[C@@H](C)C(=O)NCC(=O)N[C@@H](Cc1ccc(O)cc1)C(=O)N[C@@H](Cc1ccc(O)cc1)C(=O)N[C@@H](Cc1c[nH]c2ccccc12)C(=O)N[C@H]1CSSC[C@@H](C(=O)N2CCC[C@H]2C(=O)N[C@@H](CC(=O)O)C(=O)N[C@@H](CCC(N)=O)C(=O)NCC(=O)N[C@H](C(=O)N2CCC[C@H]2C(=O)NCC(=O)N2CCC[C@H]2C(=O)N[C@@H](CCC(=O)O)C(=O)NCC(=O)NCC(=O)NCC(=O)N[C@@H](CCCCN)C(N)=O)[C@@H](C)O)NC(=O)[C@H](CC(C)C)NC(=O)CNC(=O)[C@H](Cc2c[nH]c3ccccc23)NC(=O)[C@H](Cc2ccc(O)cc2)NC(=O)[C@H](CC(N)=O)NC1=O` [DX254]: the Kd in data set [1] (pH 5.7, 0.01 M Tris-acetate, 0 M NaCl) was under 0.1 µM; in [1] (pH 7.4, 0.01 M Tris-HCl), under 2 µM; in data set [1] (pH 7.4, PBS, […] NaCl), 0.4 ± 0.2 µM; in data set [1] (setting [17]), 0.4 ± 0.4 µM; in data set [2] (pH 5.7, 0.01 M Tris-acetate) it was over 1 µM; in data set [2] (pH 7.4, 0.01 M Tris-HCl), 2 ± 0.7 µM. Also, the Kd is 1.1 ± 0.3 µM in [2] (pH 7.4, PBS, […] NaCl); 2 ± 2.7 µM in data set [2] (setting [17]); over 10 µM in data set [3] (pH 5.7, 0.01 M Tris-acetate); over 10 µM in data set [3] (pH 7.4, PBS, […] NaCl); over 10 µM in data set [3] (setting [17]); 0.3 ± 0.3 µM in [4] (pH 5.7, 0.01 M Tris-acetate). Also, the Kd was over 10 µM in data set [4] (pH 7.4, 0.01 M Tris-HCl); over 10 µM in data set [4] (setting [17]); 1.6 ± 0.6 µM in data set [5]. For the same compound, the “% IgG Capture - Batch Binding, Human IgG4” value in [6] was 6%. In addition, the “Competition between labeled peptide and Protein A, IgG3” value in [7] is “?”. Besides, in [8], the “Competition between labeled peptide and Protein A, IgG4” value is listed as “NB”. Also, the “% IgG Capture - Batch Binding, Human IgG3” value in [9] is listed as 36%. Besides, the “% IgG Capture - Batch Binding, Goat IgG” value in data set [10] is listed as 0%. For the same compound, the “% IgG Capture - Batch Binding, Mouse IgG” value in data set [11] amounted to 2%. Further, the “% IgG Capture - Batch Binding, Bovine IgG” value in [12] was 0%. In addition, in [13], the “% IgG Capture - Batch Binding, Human IgG1” value is reported as 28%. Also, in data set [14], the “% IgG Capture - Batch Binding, Human IgG2” value came to 16%. Also, the “% IgG Capture - Batch Binding, Human IgG” value in [15] is reported as 16%.
With `O=C(O)c1ccccc1-c1c2cc(F)c(=O)cc-2oc2cc(O)c(F)cc12` [Oregon Green], the “pKa of the carboxylic acid group” value in [16] is 4.7.
